SMILES strings stand for the structures.

Consider 23 compounds from patent US9586951B2 (FUJIFILM Corporation, priority 2013, dated 2017).

The target in one test is T1, ATM (Homo sapiens, UniProt Q13315).
T1 construct: detecting phosphorylation of Chk2 in a human non-small cell lung cancer cell line NCI-H460 (ATCC company); host or cells: NCI-H460 human non-small cell lung cancer cells
The experiment in a line: ATM inhibition test (phosphorylation of Chk2 generated by ionizing radiation, AlphaScreen SureFire). To be noted: phosphorylated Chk2 in NCI-H460 cells, ionizing radiation 8Gy, 1 hour after test compound treatment; read-out: ATM inhibitory activity. Type of test: cell-based. Summed up: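 NCI-H460 cells treated with compound for 1 hour, then irradiated with 8Gy and incubated 1 hour at 37° C. Phospho-Chk2 measured by AlphaScreen SureFire. Inhibition ratio calculated relative to untreated irradiated and non-irradiated wells.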
(In general: Alpha assays give light when donor and acceptor beads are brought close together.)

The subject of test [1] is human non-small cell lung cancer cell line NCI-H460. The experiment in a line: Cell proliferation inhibition test by sensitivity-enhancing to ionizing radiation (Cell Titer Glo). The format is cell-based. To be noted: concentration in which SER became 2, NCI-H460 cells, ionizing radiation 2 Gy, cultured 120 hour. Summed up: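 Cells seeded at 2×10^3 cells/mL in RPMI-1640 with 10% FBS; after 24 h, compound added (0.1% DMSO), and 30 min later half the plates irradiated at 2 Gy. After 120 hour at 37° C, viability by Cell Titer Glo luminescence; SER2 is the concentration giving SER of 2 by sigmoidal fit.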

T1 sequence (Q13315 whole entry): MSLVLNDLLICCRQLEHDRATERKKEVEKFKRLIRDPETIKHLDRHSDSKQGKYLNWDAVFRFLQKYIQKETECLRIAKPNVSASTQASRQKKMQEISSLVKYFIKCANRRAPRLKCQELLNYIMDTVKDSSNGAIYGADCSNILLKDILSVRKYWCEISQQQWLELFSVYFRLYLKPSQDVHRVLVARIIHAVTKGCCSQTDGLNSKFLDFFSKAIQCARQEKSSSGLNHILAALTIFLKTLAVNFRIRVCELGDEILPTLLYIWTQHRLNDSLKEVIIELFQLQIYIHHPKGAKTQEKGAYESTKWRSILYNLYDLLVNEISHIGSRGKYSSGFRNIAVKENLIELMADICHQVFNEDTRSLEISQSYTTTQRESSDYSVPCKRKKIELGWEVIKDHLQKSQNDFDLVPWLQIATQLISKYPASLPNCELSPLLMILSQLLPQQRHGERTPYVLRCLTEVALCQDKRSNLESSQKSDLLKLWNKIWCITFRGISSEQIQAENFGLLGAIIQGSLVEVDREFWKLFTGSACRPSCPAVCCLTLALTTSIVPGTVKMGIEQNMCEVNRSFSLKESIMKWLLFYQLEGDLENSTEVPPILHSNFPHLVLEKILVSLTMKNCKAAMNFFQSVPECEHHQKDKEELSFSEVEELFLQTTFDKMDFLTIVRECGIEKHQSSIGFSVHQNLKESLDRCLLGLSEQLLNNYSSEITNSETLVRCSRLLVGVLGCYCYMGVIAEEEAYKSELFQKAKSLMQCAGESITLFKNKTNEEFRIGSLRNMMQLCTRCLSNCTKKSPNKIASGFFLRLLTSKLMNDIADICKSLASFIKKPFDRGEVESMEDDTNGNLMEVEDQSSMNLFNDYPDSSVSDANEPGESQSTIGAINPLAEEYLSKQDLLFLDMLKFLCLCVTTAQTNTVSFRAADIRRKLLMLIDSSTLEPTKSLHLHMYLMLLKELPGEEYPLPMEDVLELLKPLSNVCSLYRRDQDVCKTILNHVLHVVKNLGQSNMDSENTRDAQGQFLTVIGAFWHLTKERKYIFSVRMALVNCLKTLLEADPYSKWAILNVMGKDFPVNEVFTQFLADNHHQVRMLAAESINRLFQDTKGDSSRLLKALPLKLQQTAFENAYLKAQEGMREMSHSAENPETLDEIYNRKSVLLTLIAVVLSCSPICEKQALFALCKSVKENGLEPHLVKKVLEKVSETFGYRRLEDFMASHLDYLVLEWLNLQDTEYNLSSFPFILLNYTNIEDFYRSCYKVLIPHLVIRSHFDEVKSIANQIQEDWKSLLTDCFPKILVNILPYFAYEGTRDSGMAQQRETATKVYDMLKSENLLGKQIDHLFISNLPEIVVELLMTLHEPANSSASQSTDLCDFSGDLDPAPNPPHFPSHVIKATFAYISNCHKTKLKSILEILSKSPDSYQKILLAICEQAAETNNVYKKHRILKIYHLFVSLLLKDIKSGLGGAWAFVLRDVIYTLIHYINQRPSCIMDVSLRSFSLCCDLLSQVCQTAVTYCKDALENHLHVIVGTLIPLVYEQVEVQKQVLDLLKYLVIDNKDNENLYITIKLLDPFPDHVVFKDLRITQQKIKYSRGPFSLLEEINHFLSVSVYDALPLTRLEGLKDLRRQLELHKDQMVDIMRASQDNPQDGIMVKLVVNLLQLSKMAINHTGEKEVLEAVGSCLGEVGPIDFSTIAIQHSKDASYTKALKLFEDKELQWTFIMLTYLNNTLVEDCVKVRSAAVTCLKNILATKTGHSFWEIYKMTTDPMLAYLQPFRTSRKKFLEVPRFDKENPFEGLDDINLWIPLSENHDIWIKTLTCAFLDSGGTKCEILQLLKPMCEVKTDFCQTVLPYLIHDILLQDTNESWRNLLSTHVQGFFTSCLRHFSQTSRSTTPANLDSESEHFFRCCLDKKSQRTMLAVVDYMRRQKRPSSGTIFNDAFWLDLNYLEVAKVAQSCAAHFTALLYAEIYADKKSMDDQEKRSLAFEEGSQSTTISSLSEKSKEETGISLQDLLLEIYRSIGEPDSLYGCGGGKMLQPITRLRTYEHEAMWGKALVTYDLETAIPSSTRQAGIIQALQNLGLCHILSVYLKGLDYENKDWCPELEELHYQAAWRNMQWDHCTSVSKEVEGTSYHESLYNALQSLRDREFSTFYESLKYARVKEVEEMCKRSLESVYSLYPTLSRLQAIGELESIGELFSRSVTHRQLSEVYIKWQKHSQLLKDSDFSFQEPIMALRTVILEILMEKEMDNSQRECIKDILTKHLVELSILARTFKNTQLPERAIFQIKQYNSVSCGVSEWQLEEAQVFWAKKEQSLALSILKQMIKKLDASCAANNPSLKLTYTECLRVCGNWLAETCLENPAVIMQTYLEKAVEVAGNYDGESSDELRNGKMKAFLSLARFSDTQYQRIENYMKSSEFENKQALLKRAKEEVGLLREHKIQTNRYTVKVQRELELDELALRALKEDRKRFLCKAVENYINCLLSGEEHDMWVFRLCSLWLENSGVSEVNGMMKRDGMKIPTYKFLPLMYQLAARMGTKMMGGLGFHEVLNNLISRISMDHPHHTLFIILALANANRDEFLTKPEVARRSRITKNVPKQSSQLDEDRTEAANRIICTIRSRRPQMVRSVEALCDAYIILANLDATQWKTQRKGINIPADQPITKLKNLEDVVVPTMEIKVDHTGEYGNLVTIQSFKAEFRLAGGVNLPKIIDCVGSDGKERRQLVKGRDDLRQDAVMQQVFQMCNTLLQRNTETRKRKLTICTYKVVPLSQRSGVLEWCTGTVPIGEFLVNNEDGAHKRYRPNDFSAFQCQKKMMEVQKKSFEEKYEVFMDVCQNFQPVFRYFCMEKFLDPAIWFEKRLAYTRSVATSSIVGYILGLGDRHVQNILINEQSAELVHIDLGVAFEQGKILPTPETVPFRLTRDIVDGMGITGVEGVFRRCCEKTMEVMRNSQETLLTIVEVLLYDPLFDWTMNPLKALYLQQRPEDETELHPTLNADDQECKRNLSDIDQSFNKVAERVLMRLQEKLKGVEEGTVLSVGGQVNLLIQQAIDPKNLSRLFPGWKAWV

For `Cn1cc(-c2ccnc(CNc3ccc4c(c3)Cc3cccc(-c5cc(N6CCOCC6)cc(=O)[nH]5)c3O4)c2)cn1` [Example 2-2-74, 6-(7-(((4-(1-Methyl-1H-pyrazol-4-yl)pyridin-2-yl)methyl)amino)-9H-xanthen-4-yl)-4-morpholino pyridin-2(1H)-one], the IC50 on ATM was less than 100 nM. Further, the SER2 (concentration at which the radiation sensitivity-enhancement ratio reaches 2) in test [1] (Homo sapiens, NCI-H460, 120 h) lay in the range of 100 to 500 nM.
For `COC[C@H](CN1CCO[C@@H](C)C1)Nc1ccc2c(c1)Sc1cccc(-c3cc(N4CCOCC4)cc(=O)[nH]3)c1S2` [Example 1-46-6, 6-(7-(((S)-1-Methoxy-3-((S)-2-methylmorpholino)propan-2-yl)amino)thianthren-1-yl)-4-morpholino pyridin-2(1H)-one], on ATM, the IC50 is less than 100 nM. The SER2 (concentration at which the radiation sensitivity-enhancement ratio reaches 2) in test [1] (Homo sapiens, NCI-H460, 120 h) is less than 100 nM.
Turning to `Cc1ccc(C(CCCN(C)C)Nc2ccc3c(c2)Sc2cccc(-c4cc(N5CCOCC5)cc(=O)[nH]4)c2S3)nc1` (single isomer, unassigned) [Example 1-51-3, 6-(7-((4-(Dimethylamino)-1-(5-methylpyridin-2-yl)butyl)amino)thianthren-1-yl)-4-morpholino pyridin-2(1H)-one], at ATM, the IC50 was less than 100 nM. Further, the SER2 (concentration at which the radiation sensitivity-enhancement ratio reaches 2) in test [1] (Homo sapiens, NCI-H460, 120 h) fell in the range of 100 to 500 nM.
The corresponding values for `O=c1cc(N2CCOCC2)cc(-c2cccc3c2Oc2ccc(NCc4cncc(C5CC5)c4)cc2C3)[nH]1` [Example 2-2-50, 6-(7-(((5-Cyclopropylpyridin-3-yl)methyl)amino)-9H-xanthen-4-yl)-4-morpholino pyridin-2 (1H)-one] are less than 100 nM and 100 to 500 nM.
Turning to `Cc1cccc(C(C)Nc2ccc3c(c2)Sc2cccc(-c4cc(N5CCOCC5)cc(=O)[nH]4)c2S3)n1` (stereo not shown) [Example 1-12-30, 6-(7-((1-(6-Methylpyridin-2-yl)ethyl)amino)thianthren-1-yl)-4-morpholino pyridin-2 (1H)-one], the IC50 on ATM is less than 100 nM. The SER2 (concentration at which the radiation sensitivity-enhancement ratio reaches 2) in test [1] (Homo sapiens, NCI-H460, 120 h) is less than 100 nM.
Consider `COC[C@H](CN1CCOC[C@@H]1C)Nc1ccc2c(c1)Sc1cccc(-c3cc(N4CCOCC4)cc(=O)[nH]3)c1S2` [Example 1-46-5, 6-(7-(((S)-1-Methoxy-3-((S)-3-methylmorpholino)propan-2-yl)amino)thianthren-1-yl)-4-morpholino pyridin-2(1H)-one], for which the IC50 on ATM was less than 100 nM. The SER2 (concentration at which the radiation sensitivity-enhancement ratio reaches 2) in test [1] (Homo sapiens, NCI-H460, 120 h) lay within 100 to 500 nM.
Taken in the same sequence, the figures for `CC(CN1C[C@@H](C)O[C@@H](C)C1)Nc1ccc2c(c1)Sc1cccc(-c3cc(N4CCOCC4)cc(=O)[nH]3)c1S2` (stereo partly drawn) [Example 1-13-12, 6-(7-((1-((2S,6R)-2,6- Dimethylmorpholino)propan-2-yl)amino)thianthren-1-yl)-4-morpholino pyridin-2(1H)-one] were less than 100 nM and 100 to 500 nM.
Regarding `CC(CN1CCN(C)CC1)Nc1ccc2c(c1)Sc1cccc(-c3cc(N4CCOCC4)cc(=O)[nH]3)c1S2` (racemic) [Example 1-13-3-1, 6-(7-((1-(4-Methylpiperazin-1-yl)propan-2-yl)amino)thianthren-1-yl)-4-morpholinopyridin-2(1H)-one], on ATM, the IC50 is less than 100 nM. Further, the SER2 (concentration at which the radiation sensitivity-enhancement ratio reaches 2) in test [1] (Homo sapiens, NCI-H460, 120 h) lay in the range of 100 to 500 nM.
The corresponding values for `CC(CN1CCN(c2ccccn2)CC1)Nc1ccc2c(c1)Sc1cccc(-c3cc(N4CCOCC4)cc(=O)[nH]3)c1S2` (stereo not shown) [Example 1-13-17, 4-Morpholino-6-(7-((1-(4-(pyridin-2-yl)piperazin-1-yl)propan-2-yl)amino)thianthren-1-yl)pyridin-2 (1H)-one] are less than 100 nM and 100 to 500 nM.
The corresponding values for `COc1ncccc1CN1CCC(Nc2ccc3c(c2)Cc2cccc(-c4cc(N5CCOCC5)cc(=O)[nH]4)c2O3)CC1` [Example 2-28-5, 6-(7-((1-((2-Methoxypyridin-3-yl)methyl)piperidin-4-yl)amino)-9H-xanthen-4-yl)-4-morpholino pyridin-2(1H)-one] are less than 100 nM and 500 to 2000 nM.
Taken in the same sequence, the figures for `COC[C@H](CN1C[C@@H](C)O[C@@H](C)C1)Nc1ccc2c(c1)Sc1cccc(-c3cc(N4CCOCC4)cc(=O)[nH]3)c1S2` [Example 1-46-11, 6-(7-(((S)-1-((2S,6R)-2,6- Dimethylmorpholino)-3-methoxypropan-2-yl)amino)thianthren-1-yl)-4-morpholino pyridin-2(1H)-one] were less than 100 nM and less than 100 nM.
As for `Cc1cnc(C(C)Nc2ccc3c(c2)Sc2cccc(-c4cc(N5CCOCC5)cc(=O)[nH]4)c2S3)nc1` (stereo not shown) [Example 1-12-70, 6-(7-((1-(5-Methylpyrimidin-2-yl)ethyl)amino)thianthren-1-yl)-4-morpholino pyridin-2(1H)-one], the IC50 on ATM is less than 100 nM. For the same compound, the SER2 (concentration at which the radiation sensitivity-enhancement ratio reaches 2) in test [1] (Homo sapiens, NCI-H460, 120 h) was less than 100 nM.
For `O=c1cc(N2CCOCC2)cc(-c2cccc3c2Oc2ccc(NCc4ccc(Cl)nc4)cc2S3)[nH]1` [Example 4-8-25, 6-(8-(((6-Chloropyridin-3-yl)methyl)amino)phenoxathiin-4-yl)-4-morpholino pyridin-2(1H)-one], on ATM, the IC50 was less than 100 nM. Moreover, the SER2 (concentration at which the radiation sensitivity-enhancement ratio reaches 2) in test [1] (Homo sapiens, NCI-H460, 120 h) lay in the range of 100 to 500 nM.
As to `Cc1cnc(C(C)Nc2ccc3c(c2)Sc2cccc(-c4cc(N5CCOCC5)cc(=O)[nH]4)c2S3)nc1` (single isomer, unassigned) [Example 1-12-139-2, 6-(7-((1-(5-methylpyrimidin-2-yl)ethyl)amino)thianthren-1-yl)-4-morpholinopyridin-2(1H)-one], on ATM, the IC50 was less than 100 nM. Besides, the SER2 (concentration at which the radiation sensitivity-enhancement ratio reaches 2) in test [1] fell in the range of 100 to 500 nM.
Take `CNCC(Nc1ccc2c(c1)Sc1cccc(-c3cc(N4CCOCC4)cc(=O)[nH]3)c1S2)c1cccc(C)n1` (stereo not shown) [Example 1-19-1, 6-(7-((2-(Methylamino)-1-(6-methylpyridin-2-yl)ethyl)amino)thianthren-1-yl)-4-morpholinopyridin-2(1H)-one]: the IC50 at ATM was less than 100 nM. Moreover, the SER2 (concentration at which the radiation sensitivity-enhancement ratio reaches 2) in test [1] (Homo sapiens, NCI-H460, 120 h) was 100 to 500 nM.
The corresponding values for `Cc1cccc(C(Nc2ccc3c(c2)Sc2cccc(-c4cc(N5CCOCC5)cc(=O)[nH]4)c2S3)C2CCCN(C)C2)n1` (single isomer, unassigned) [Example 1-22-4, 6-(7-(((1-Methylpiperidin-3-yl)(6-methylpyridin-2-yl)methyl)amino)thianthren-1-yl)-4-morpholino pyridin-2 (1H)-one] are less than 100 nM and less than 100 nM.
As for `Cc1cccc(C(CCN(C)C)Nc2ccc3c(c2)Sc2cccc(-c4cc(N5CCOCC5)cc(=O)[nH]4)c2S3)n1` (single isomer, unassigned) [Example 1-22-11-2, 6-(7-((3-(dimethylamino)-1-(6-methylpyridin-2-yl)propyl)amino)thianthren-1-yl)-4-morpholinopyridin-2(1H)-one], at ATM, the IC50 was less than 100 nM. Moreover, in test [1], the SER2 (concentration at which the radiation sensitivity-enhancement ratio reaches 2) is less than 100 nM.
For `COC(=O)C(Nc1ccc2c(c1)Sc1cccc(-c3cc(N4CCOCC4)cc(=O)[nH]3)c1S2)c1ccc(C)cn1` (stereo not shown) [Example 1-12-108, Methyl 2-(5-methylpyridin-2-yl)-2-((6-(4-morpholino-6-oxo-1,6-dihydropyridin-2-yl)thianthren-2-yl)amino) acetate], the IC50 on ATM is less than 100 nM. For the same compound, in test [1] (Homo sapiens, NCI-H460, 120 h), the SER2 (concentration at which the radiation sensitivity-enhancement ratio reaches 2) is 100 to 500 nM.
The corresponding values for `N#Cc1cncc(CNc2ccc3c(c2)Cc2cccc(-c4cc(N5CCOCC5)cc(=O)[nH]4)c2O3)c1` [Example 2-14-7, 5-(((5-(4-Morpholino-6-oxo-1,6-dihydropyridin-2-yl)-9H-xanthen-2-yl)amino)methyl)nicotinonitrile] are less than 100 nM and 500 to 2000 nM.
Take `O=c1cc(N2CCOCC2)cc(-c2cccc3c2Sc2ccc(NCCN4CCOCC4)cc2S3)[nH]1` [Example 1-10-7, 4-Morpholino-6-(7-((2-morpholinoethyl)amino)thianthren-1-yl)pyridin-2 (1H)-one]: at ATM, the IC50 was less than 100 nM. In addition, in test [1] (Homo sapiens, NCI-H460, 120 h), the SER2 (concentration at which the radiation sensitivity-enhancement ratio reaches 2) lay within 100 to 500 nM.
The corresponding values for `CC(Nc1ccc2c(c1)Sc1cccc(-c3cc(N4CCOCC4)cc(=O)[nH]3)c1S2)c1nccc(CF)n1` (stereo not shown) [Example 1-12-85, 6-(7-((1-(4-(Fluoromethyl)pyrimidin-2-yl)ethyl)amino)thianthren-1-yl)-4-morpholino pyridin-2(1H)-one] are less than 100 nM and less than 100 nM.
Taken in the same sequence, the figures for `COc1ncc(CNc2ccc3c(c2)Sc2cccc(-c4cc(N5CCOCC5)cc(=O)[nH]4)c2O3)cc1F` [Example 4-4-14, 6-(8-(((5-Fluoro-6-methoxypyridin-3-yl)methyl)amino)phenoxathiin-4-yl)-4-morpholino pyridin-2(1H)-one] were less than 100 nM and 100 to 500 nM.
In the case of `CC(Nc1ccc2c(c1)Cc1cccc(-c3cc(N4CCOCC4)cc(=O)[nH]3)c1O2)c1cc(Cl)ccn1` (stereo not shown) [Example 2-14-23, 6-(7-((1-(4-Chloropyridin-2-yl)ethyl)amino)-9H-xanthen-4-yl)-4-morpholino pyridin-2(1H)-one], the IC50 at ATM is less than 100 nM. Also, the SER2 (concentration at which the radiation sensitivity-enhancement ratio reaches 2) in test [1] (Homo sapiens, NCI-H460, 120 h) was in the range of 100 to 500 nM.
